Results published in US11672785B2, “Tetrahydro-1H-pyrido [3,4-b]indole anti-estrogenic drugs” (Olema Pharmaceuticals, Inc., priority 2015, dated 2023).
Entries after “also recorded” stand apart in the source; their conditions may differ. Read-outs that look alike come from different tables or passages of the source.

Assays:
[1] = Free fraction of drug in mouse plasma, rapid equilibrium dialysis; format: in vitro ADME
Text: (§1) Method for detecting free fraction of drug in plasma: Compounds were screened for binding to human and mouse plasma (Bioreclamation, IVT) using a rapid equilibrium dialysis device (Thermo Fisher Scientific) and compounds subsequently detected by LC-MS/MS. Percent free drug equals the concentration of compound in buffer chamber divided by that in the […] chamber×100.

[2] = Free fraction of drug in human plasma, rapid equilibrium dialysis; format: in vitro ADME
Text: as §1

[3] = system: estrogen-responsive reporter gene, ERE-tk109-Luc; experiment: Inhibition of E2-induced transcription, ERE-tk109-Luc reporter in transfected MCF-7 cells; format: cell-based; conditions: Homo sapiens, MCF7
Experimental: Representative compounds were tested for their inhibitory activity of estrogen according to the assay methods described in Hodges-Gallagher, L., Valentine, C. […] Specifically, MCF-7 cells were transiently transfected with an estrogen-responsive reporter gene, ERE-tk109-Luc. […] Luciferase activity was normalized to activity of E2 alone and IC50's were calculated using the least squares fit method.

[4] = system: MCF-7 breast cancer cells; experiment: Inhibition of E2-stimulated proliferation of MCF-7 cells (Cyquant); format: cell-based; conditions: Homo sapiens, MCF7
Experimental: Proliferation of MCF-7 breast cancer cells was measured using Cyquant, a fluorescent DNA-binding dye (Thermo Fisher Scientific). MCF-7 cells were treated with antiestrogens in triplicate in hormone-depleted medium for 5-7 days in the presence of 100 pM E2. Fluorescent activity was normalized to the activity of E2 alone and IC50's were calculated using the least squares fit method.

[5] = Pharmacokinetics in BALB/c female mice, oral gavage; format: in vivo; conditions: for oral drug exposure, free fraction taken into account, vs equal dose of Compounds 107 and 102: mice, oral gavage, FIGS. 1A-1B
Experimental: Pharmacokinetics were studied in BALB/c female mice. For each arm, three BALB/c female mice were given 5 mg/kg of compound in 0.5% CMC formulation by oral gavage. Concentration of compounds in mouse plasma and their metabolites were analyzed at each time point using LC-MS/MS. The concentrations were adjusted for the free fraction of drug in mouse plasma (method below). Area under the curve was calculated using the trapezoidal rule for 0-24 hours.

ERα [6] = molecular target: T1, ERα (Homo sapiens (Human), UniProt P03372); experiment: ER degradation in MCF-7 cells, immunoblot; format: cell-based; conditions: 100 nM, 24 hours, serum-free medium
T1 sequence (P03372 whole entry): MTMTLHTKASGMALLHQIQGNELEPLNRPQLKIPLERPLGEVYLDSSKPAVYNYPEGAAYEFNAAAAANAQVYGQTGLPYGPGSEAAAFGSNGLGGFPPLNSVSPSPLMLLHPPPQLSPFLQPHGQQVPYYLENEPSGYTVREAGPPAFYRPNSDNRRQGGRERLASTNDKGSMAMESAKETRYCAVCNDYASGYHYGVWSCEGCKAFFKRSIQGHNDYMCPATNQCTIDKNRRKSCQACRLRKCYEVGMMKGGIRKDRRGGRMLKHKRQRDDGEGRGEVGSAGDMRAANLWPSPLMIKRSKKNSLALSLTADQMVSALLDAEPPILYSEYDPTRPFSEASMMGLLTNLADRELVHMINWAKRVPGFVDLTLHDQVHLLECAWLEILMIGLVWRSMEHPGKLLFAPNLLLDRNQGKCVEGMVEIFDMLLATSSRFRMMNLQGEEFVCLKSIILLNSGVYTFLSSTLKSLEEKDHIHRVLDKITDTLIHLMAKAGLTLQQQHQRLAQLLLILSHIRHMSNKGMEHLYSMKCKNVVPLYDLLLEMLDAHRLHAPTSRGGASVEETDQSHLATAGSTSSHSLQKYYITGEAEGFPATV
Experimental: MCF-7 cells were treated with 100 nM anti-estrogen for 24 hours in serum-free medium and protein extracts immunoblotted with D12 antibody to ERα and β-actin (Santa Cruz Biotechnology). The numbers below the blots represent the optical density of ERα bands of each treatment relative to percent vehicle after normalization to β-actin.

MCF-7 (HER2/neu) tumors = experiment: Xenograft study, Clone 18 (MCF7/Her2/neu) tumors in athymic ovariectomized nu/nu mice; format: in vivo; conditions: oral gavage, 10 mg/kg, FIGS. 5A-B
Experimental: Xenograft studies were conducted by the Preclinical Therapeutics Core at the University of California, San Francisco in accordance with the Institutional Animal Care and Use Committee (IACUC) guidelines. Clone 18 cells (MCF7/Her2/neu) cells were grown in culture and implanted into athymic ovariectomized nu/nu mice. To stimulate tumor growth 0.36 mg estradiol 90 day release pellets (Innovative Research, Saratoga, Fla.) were implanted along with cells. When tumors reached 150-250 cubic millimeters the pellets were exchanged for 0.18 mg estradiol 90 day release pellets and divided into groups of six mice per treatment group. One of those groups received vehicle only (0.5% CMC+8% DMSO), and Compound B and Compound C each had 2 groups treated with either 10 or 100 mg/kg compound. Compounds were administered by oral gavage twice daily, except once daily on weekends/holidays for the first 21 days, and once daily after day 21. Tumors and bodyweight were measured twice weekly.

ERα [7] = molecular target: T1, ERα; experiment: ERα levels in MCF-7 cells, in-cell western (Colorimetric In-Cell ELISA); format: cell-based; conditions: for Relative change in ERα levels in breast cells % Veh: MCF-7, 24 hours
Experimental: IC50's were calculated using the least squares fit method. Error bars represent S.E.M from triplicate wells.

[8] = system: AP activity in ECC-1 cells; experiment: Alkaline phosphatase (AP) assay in ECC-1 uterine cells, antagonist mode (co-treated with 500 pM E2); format: cell-based, human; conditions: 100 nM antiestrogen
Experimental: Method for performing the alkaline phosphatase (AP) assay. ECC-1 cells were trypsinized and resuspended in hormone-depleted media and plated at a density of 15 k cells per well into a 96-well plate for at least 4 hours. Cells were treated with antiestrogens for 3 days and plates were subsequently frozen at −80° C. […] AP activity was normalized to the activity of E2 alone.

[9] = system: AP activity in ECC-1 cells; experiment: Alkaline phosphatase (AP) assay in ECC-1 uterine cells, agonist mode; format: cell-based, human; conditions: mean of n
Experimental: Method for performing the alkaline phosphatase (AP) assay. ECC-1 cells were trypsinized and resuspended in hormone-depleted media and plated at a density of 15 k cells per well into a 96-well plate for at least 4 hours. Cells were treated with antiestrogens for 3 days and plates were subsequently frozen at −80° C. Thawed plates were incubated with a chromogenic substrate of AP, p-nitrophenyl phosphate (Thermo Fisher Scientific), for 40 minutes at 40° C. and absorbances were read at 405 nm. AP activity was normalized to the activity of E2 alone. […] A representative result for induction of AP activity in uterine cells (% E2) is shown below in tabular form: […]

[10] = MCF-7, 100 pM E2, 22 hours, read-out: inhibition of E2-induced transcription in breast cells IC50
[11] = Table 1, read-out: ERE-Luc IC50
[12] = mean of n, read-out: Inhibition of E2-stimulated transcription in breast cells pIC50 (converted)
[13] = MCF-7, 100 pM E2, 5-7 days, read-out: inhibition of E2-stimulated proliferation in breast cells IC50
[14] = Table 1, read-out: MCF-7 Proliferation IC50
[15] = BALB/c mice, 5 mg/kg oral gavage
[16] = mean of n, read-out: Inhibition of E2-stimulated proliferation in breast cells pIC50 (converted)

SMILES | fraction unbound [1] | fraction unbound [2] | IC50 [3, 10] | IC50 [3, 11] | IC50 [3, 12] | IC50 [4, 13] | IC50 [4, 14] | 24 hour drug exposure compared to other compounds [5, 15] | half-life [5, 15] | oral bioavailability [5, 15] | oral drug exposure, free fraction taken into account, vs equal dose of Compounds 107 and 102 [5] | ER degradation in MCF-7 cells (immunoblot, FIG. 7) (ERα [6]) | tumor shrinkage in xenografted mice (MCF-7 (HER2/neu) tumors) | IC50 [4, 16] | ER degradation in MCF-7 cells (in-cell western, FIG. 2) (ERα [7]; 24 hours) | Relative change in ERα levels in breast cells % Veh (ERα [7]) | residual AP activity in uterine cells (% of E2 alone) [8] | Induction of Alkaline Phosphatase (AP) % E2 [9]
C[C@@H]1Cc2c([nH]c3ccccc23)[C@@H](c2c(F)cc(/C=C/C(=O)O)cc2F)N1CC(C)(C)F [AZD9496, (E)-3-(3,5-Difluoro-4-((1R,3R)-2-(2-fluoro-2-methylpropyl)-3-methyl-2,3,4,9-tetrahydro-1H-pyrido[3,4-b]indol-1-yl)phenyl)acrylic Acid, reference compound] | 0.00214 | 0.00308 | 0.2 nM | 0.2 nM | 0.631 nM | – | – | – | – | – | – | – | – | – | – | – | – | –
CCCN1CC(Oc2ccc([C@@H]3c4[nH]c5ccccc5c4C[C@@H](C)N3CC(C)(C)F)cc2F)C1 [Compound A, (1R,3R)-2-(2-fluoro-2-methylpropyl)-1-(3-fluoro-4-((1-propylazetidin-3-yl)oxy)phenyl)-3-methyl-2,3,4,9-tetrahydro-1H-pyrido[3,4-b]indole] | – | – | 2.96 nM | 2.96 nM | – | 7.58 nM | 7.58 nM | – | – | – | – | – | – | – | – | – | – | –
CCCN1CC(Oc2ccc([C@@H]3c4[nH]c5ccccc5c4C[C@@H](C)N3CC(C)(C)F)cc2)C1 [Compound B, (1R,3R)-2-(2-fluoro-2-methylpropyl)-3-methyl-1-(4-((1-propylazetidin-3-yl)oxy)phenyl)-2,3,4,9-tetrahydro-1H-pyrido[3,4-b]indole] | 0.00027 | 0.00036 | 4.35 nM | 4.35 nM | 4.37 nM | 4.53 nM | 4.53 nM | better | high | high | substantially higher | degrades the estrogen receptor | outstandingly potent in shrinking human breast cancer xenografts; also recorded: shrinks MCF-7 (HER2/neu) tumors | 7.76 nM | degrades the estrogen receptor | 45 % Veh | – | –
C[C@@H]1Cc2c([nH]c3ccccc23)[C@@H](c2ccc(OCCN3CC(CF)C3)cc2)N1CC(C)(C)F [Compound C, (1R,3R)-2-(2-fluoro-2-methylpropyl)-1-(4-(2-(3-(fluoromethyl)azetidin-1-yl)ethoxy)phenyl)-3-methyl-2,3,4,9-tetrahydro-1H-pyrido[3,4-b]indole] | 0.00092 | 0.00151 | 10.7 nM | 10.7 nM | 8.13 nM | 1.3 nM | 14.5 nM | – | – | – | substantially higher | – | outstandingly potent in shrinking human breast cancer xenografts | 11.7 nM | – | 42 % Veh | – | –
C[C@@H]1Cc2c([nH]c3ccccc23)[C@@H](c2c(F)cc(OCCN3CC(CF)C3)cc2F)N1CC(C)(C)F [Compound D, (1R,3R)-1-(2,6-difluoro-4-(2-(3-(fluoromethyl)azetidin-1-yl)ethoxy)phenyl)-2-(2-fluoro-2-methylpropyl)-3-methyl-2,3,4,9-tetrahydro-1H-pyrido[3,4-b]indole] | 0.00036 | 0.00044 | 10 nM | 10 nM | 9.55 nM | 8.4 nM | 8.4 nM | – | – | – | – | – | – | 10.5 nM | – | – | 4.07 % E2 | –
C[C@]12CC[C@@H]3c4ccc(O)cc4C[C@@H](CCCCCCCCC[S+]([O-])CCCC(F)(F)C(F)(F)F)[C@H]3[C@@H]1CC[C@@H]2O (stereo partly drawn) [Fulvestrant, reference compound] | – | 1e-05 | 1.4 nM | – | 1.91 nM | 2.1 nM | – | – | – | – | – | – | – | 2.63 nM | – | – | – | –
CCCN1CC(Oc2cc(F)c([C@@H]3c4[nH]c5ccccc5c4C[C@@H](C)N3CC(C)(C)F)c(F)c2)C1 [Goodacre Compound 107, (1R,3R)-1-(2,6-difluoro-4-((1-propylazetidin-3-yl)oxy)phenyl)-2-(2-fluoro-2-methylpropyl)-3-methyl-2,3,4,9-tetrahydro-1H-pyrido[3,4-b]indole, reference compound] | 0.00012 | 0.00013 | – | – | 4.37 nM | – | – | – | – | – | – | – | – | 7.59 nM | – | – | – | 0.00 % E2
Oc1ccc2c(c1)CC[C@H](c1ccccc1)[C@@H]2c1ccc(OCCN2CCCC2)cc1 [Lasofoxifene, reference compound] | – | – | 4.6 nM | – | – | 11 nM | – | – | – | – | – | – | – | – | – | – | – | –
